This is an account of results in patent US9850203B2, “Autotaxin inhibitor compounds” (PharmAkea, Inc., priority 2013, dated 2017).

In this assay the target is human autotaxin (ATX) (Homo sapiens (Human), UniProt Q13822). As to the kind of experiment: Human Autotaxin Assay. The settings on record: concentrated conditioned media from Hep3B cells; LPC substrate, choline release. The format is biochemical. The method, then: ATX activity is assayed in concentrated conditioned media from Hep3B human hepatocellular carcinoma cells by measuring the amount of choline released from the substrate, lysophosphatidylcholine (LPC) as it is cleaved to LPA. Conditioned media is collected from confluent Hep3B cells and concentrated 20-fold using Centriprep-30 filter devices (Millipore). To assay for autotaxin inhibition, 10-20 μL of the concentrated conditioned media is incubated with 2.5 μL of a test compound in DMSO and 72.5-82.5 μL lyso-PLD buffer (100 mM Tris pH 9, 500 mM NaCl, 5 mM MgCl2, 5 mM CaCl2, 0.05% Triton X-100 in the presence or absence of 0.2% fatty-acid-free human serum albumin) for 15 min at 37° C. After the 15 min incubation, 5 uL of 2 mM LPC (14:0; Avanti Polar Lipids Cat#855575C) diluted in lyso-PLD buffer is added for a final concentration of 100 uM and the incubation continues for 1.5-3 hours at 37° C.

A word on the IC50: it is the midpoint of a concentration-inhibition curve. A low value points to greater potency in that assay.

For `Cc1c(Sc2cccc(C(=O)O)c2)c2ccc(Cl)c(F)c2n1CC(=O)N1CCCC2(CNC(=O)C2)C1` (stereo not shown) [Compound 1-35, 3-((6-Chloro-7-fluoro-2-methyl-1-(2-oxo-2-(3-oxo-2,7-diazaspiro[4.5]decan-7-yl)ethyl)-1H-indol-3-yl)thio)benzoic acid], the IC50 was no more than 500 nM.
With `Cc1c(Sc2cccc(C(=O)O)c2)c2ccc(Cl)c(F)c2n1CC(=O)N1CCC2(CCN(Cc3ccccc3)CC2)C1` [Compound 1-67, 3-((1-(2-(8-Benzyl-2,8-diazaspiro[4.5]decan-2-yl)-2-oxoethyl)-6-chloro-7-fluoro-2-methyl-1H-indol-3-yl)thio)benzoic acid], the IC50 is 500 to 3000 nM.
Then `Cc1c(Sc2cccc(C(=O)O)c2)c2ccc(Cl)c(F)c2n1CC(=O)Nc1cnoc1` [Compound 1-11, 3-((6-Chloro-7-fluoro-1-(2-(isoxazol-4-ylamino)-2-oxoethyl)-2-methyl-1H-indol-3-yl)thio)benzoic acid], with 500 to 3000 nM.
In turn, `Cc1c(Sc2cccc(C(=O)O)c2)c2ccc(Cl)c(F)c2n1CC(=O)N(C)C` [Compound 1-7, 3-((6-Chloro-1-(2-(dimethylamino)-2-oxoethyl)-7-fluoro-2-methyl-1H-indol-3-yl)thio)benzoic acid] registered an IC50 of no more than 500 nM.
Then `Cc1c(Sc2cccc(C(=O)O)c2)c2ccc(Cl)c(F)c2n1CC(=O)N1CCC2(CC1)CNC(=O)O2` [Compound 1-12], with no more than 500 nM.
Compound `Cc1c(Sc2cccc(C(=O)O)c2F)c2ccc(Cl)c(F)c2n1CCN1CCc2ccccc21` [Compound 2-73, Sodium 3-((6-chloro-7-fluoro-1-(2-(indolin-1-yl)ethyl)-2-methyl-1H-indol-3-yl)thio)-2-fluorobenzoate] came in with an IC50 of no more than 500 nM.
With `Cc1c(Sc2cccc(C(=O)O)c2)c2ccc(Cl)c(F)c2n1CC(=O)N1CC(O)(C(F)(F)F)C1` [Compound 1-84, 3-((6-Chloro-7-fluoro-1-(2-(3-hydroxy-3-(trifluoromethyl)azetidin-1-yl)-2-oxoethyl)-2-methyl-1H-indol-3-yl)thio)benzoic acid] the figure was no more than 500 nM; with `Cc1c(Sc2cccc(C(=O)O)c2)c2ccc(Cl)c(F)c2n1CC(=O)N1CCC(Cc2ccc(F)cc2)C1` (single isomer, unassigned; enantiomer a) [Compound 1-65, 3-((6-Chloro-7-fluoro-1-(2-(3-(4-fluorobenzyl)pyrrolidin-1-yl)-2-oxoethyl)-2-methyl-1H-indol-3-yl)thio)benzoic acid Enantiomer A], no more than 500 nM; with `Cc1c(Sc2cccc(C(=O)O)c2)c2ccc(Cl)c(F)c2n1CC(=O)N1CCC2(CCOCC2)C1` [Compound 1-46, 3-((6-Chloro-7-fluoro-2-methyl-1-(2-oxo-2-(8-oxa-2-azaspiro[4.5]decan-2-yl)ethyl)-1H-indol-3-yl)thio)benzoic acid], no more than 500 nM.
`Cc1c(Sc2cccc(C(=O)O)c2)c2ccc(Cl)c(F)c2n1CC(=O)N1CCc2ccccc21` [Compound 1-14, 3-((6-Chloro-7-fluoro-1-(2-(indolin-1-yl)-2-oxoethyl)-2-methyl-1H-indol-3-yl)thio)benzoic acid] had an IC50 of no more than 500 nM.
Then `Cc1c(Sc2cccc(C(=O)O)c2)c2ccc(Cl)c(F)c2n1CC(=O)N1CCCC1` [Compound 1-9, 3-((6-Chloro-7-fluoro-2-methyl-1-(2-oxo-2-(pyrrolidin-1-yl)ethyl)-1H-indol-3-yl)thio)benzoic acid], with no more than 500 nM.
`Cc1c(Sc2cccc(C(=O)O)c2)c2ccc(Cl)c(F)c2n1CC(=O)N1CC2C(C1)C2C(N)=O` [Compound 1-51, 3-((1-(2-((1R,5S,6R)-6-Carbamoyl-3-azabicyclo[3.1.0]hexan-3-yl)-2-oxoethyl)-6-chloro-7-fluoro-2-methyl-1H-indol-3-yl)thio)benzoic acid] returned an IC50 of no more than 500 nM.
With `O=C(O)c1cccc(Sc2c(C3CC3)n(CCN3CCc4ccccc43)c3c(F)c(Cl)ccc23)c1F` [Compound 5-4, Sodium 3-((6-chloro-2-cyclopropyl-7-fluoro-1-(2-(indolin-1-yl)ethyl)-1H-indol-3-yl)thio)-2-fluorobenzoate] the figure was no more than 500 nM.
`Cc1c(Sc2cccc(C(=O)O)c2)c2ccc(Cl)c(F)c2n1CC(=O)N1CC2(CCC2)c2c(F)cccc21` [Compound 1-33, 3-((6-Chloro-7-fluoro-1-(2-(4′-fluorospiro[cyclobutane-1,3′-indolin]-1′-yl)-2-oxoethyl)-2-methyl-1H-indol-3-yl)thio)benzoic acid] came in with an IC50 of no more than 500 nM.
With `Cc1c(Sc2cccc(C(=O)O)c2F)c2ccc(Cl)c(F)c2n1CC(=O)N1CC(O)(C2CC2)C1` [Compound 2-63, 3-((6-Chloro-1-(2-(3-cyclopropyl-3-hydroxyazetidin-1-yl)-2-oxoethyl)-7-fluoro-2-methyl-1H-indol-3-yl)thio)-2-fluorobenzoic acid] the figure was no more than 500 nM; with `Cc1ccc2c(c1)CCN2C(=O)Cn1c(C)c(Sc2cccc(C(=O)O)c2)c2ccc(Cl)c(F)c21` [Compound 1-92, 3-((6-Chloro-7-fluoro-2-methyl-1-(2-(5-methylindolin-1-yl)-2-oxoethyl)-1H-indol-3-yl)thio)benzoic acid], no more than 500 nM.
Then `Cc1c(Sc2cccc(C(=O)O)c2)c2ccc(Cl)c(F)c2n1CC(=O)N1CCC(c2ccc(F)cc2)C1` (single isomer, unassigned; enantiomer b) [Compound 1-75, 3-((6-Chloro-7-fluoro-1-(2-(3-(4-fluorophenyl)pyrrolidin-1-yl)-2-oxoethyl)-2-methyl-1H-indol-3-yl)thio)benzoic acid Enantiomer B], with no more than 500 nM.
In the case of `COc1ccc2c(c1)CCN2C(=O)Cn1c(C)c(Sc2cccc(C(=O)O)c2)c2ccc(Cl)c(F)c21` [Compound 1-58, 3-((6-Chloro-1-(2-(5-methoxyindolin-1-yl)-2-oxoethyl)-7-fluoro-2-methyl-1H-indol-3-yl)thio)benzoic acid], the half-maximal inhibitory concentration (IC50) is no more than 500 nM.
For `Cc1c(Sc2cccc(C(=O)O)c2)c2ccc(Cl)c(F)c2n1CC(=O)N1CCC(CCn2cccn2)CC1` [Compound 1-61, 3-((1-(2-(4-(2-(1H-Pyrazol-1-yl)ethyl)piperidin-1-yl)-2-oxoethyl)-6-chloro-7-fluoro-2-methyl-1H-indol-3-yl)thio)benzoic acid], the IC50 was no more than 500 nM.
Then `Cc1c(Sc2cccc(C(=O)O)c2)c2ccc(Cl)c(F)c2n1CCC(=O)N1CCc2ccccc21` [Compound 1-26, 3-((6-Chloro-7-fluoro-1-(3-(indolin-1-yl)-3-oxopropyl)-2-methyl-1H-indol-3-yl)thio)benzoic acid], with no more than 500 nM; and `Cc1c(Sc2cccc(C(=O)O)c2)c2ccc(Cl)c(F)c2n1CC(=O)N1CC2(CNC(=O)C2)C1` [Compound 1-49, 3-((6-Chloro-7-fluoro-2-methyl-1-(2-oxo-2-(7-oxo-2,6-diazaspiro[3,4]octan-2-yl)ethyl)-1H-indol-3-yl)thio)benzoic acid], with no more than 500 nM; and `Cc1c(Sc2cccc(C(=O)O)c2F)c2ccc(Cl)c(F)c2n1CC(=O)N1CC2(CCCC2)c2ccccc21` [Compound 3-221, 3-((6-Chloro-7-fluoro-2-methyl-1-(2-oxo-2-(spiro[cyclopentane-1,3′-indolin]-1′-yl)ethyl)-1H-indol-3-yl)thio)-2-fluorobenzoic acid], with no more than 500 nM.
Then `Cc1c(Sc2cccc(C(=O)O)c2)c2ccc(Cl)c(F)c2n1CC(=O)N1CCC(OCc2ccc(F)c(F)c2)CC1` [Compound 1-13, 3-((6-Chloro-1-(2-(4-((3,4-difluorobenzyl)oxy)piperidin-1-yl)-2-oxoethyl)-7-fluoro-2-methyl-1H-indol-3-yl)thio)benzoic acid], with no more than 500 nM.
Then `Cc1c(Sc2cccc(C(=O)O)c2)c2ccc(Cl)c(F)c2n1CC(=O)N1CC(n2cccn2)C1` [Compound 1-86, 3-((1-(2-(3-(1H-Pyrazol-1-yl)azetidin-1-yl)-2-oxoethyl)-6-chloro-7-fluoro-2-methyl-1H-indol-3-yl)thio)benzoic acid], with no more than 500 nM.
For `Cc1c(Sc2cccc(C(=O)O)c2F)c2ccc(Cl)c(F)c2n1CC(=O)N1CC2(CCC2)c2ccccc21` [Compound 3-220, 3-((6-Chloro-7-fluoro-2-methyl-1-(2-oxo-2-(spiro[cyclobutane-1,3′-indolin]-1′-yl)ethyl)-1H-indol-3-yl)thio)-2-fluorobenzoic acid], the IC50 is no more than 500 nM.
As for `Cc1c(Sc2cccc(C(=O)O)c2F)c2ccc(Cl)c(F)c2n1CC(=O)N1CC2(CC2)c2ccccc21` [Compound 2-55, 3-((6-Chloro-7-fluoro-2-methyl-1-(2-oxo-2-(spiro[cyclopropane-1,3′-indolin]-1′-yl)ethyl)-1H-indol-3-yl)thio)-2-fluorobenzoic acid], the IC50 was no more than 500 nM.
With `Cc1c(Sc2cccc(C(=O)O)c2F)c2ccc(Cl)c(F)c2n1CC(=O)N1C[C@H](O)[C@@H](N2CCOCC2)C1` [Compound 2-65, 3-((6-Chloro-7-fluoro-1-(2-((3S,4S)-3-hydroxy-4-morpholinopyrrolidin-1-yl)-2-oxoethyl)-2-methyl-1H-indol-3-yl)thio)-2-fluorobenzoic acid] the figure was no more than 500 nM.
Then `Cc1c(Sc2cccc(C(=O)O)c2)c2ccc(Cl)c(F)c2n1CCC(=O)N1CCCC1` [Compound 1-25, 3-((6-Chloro-7-fluoro-2-methyl-1-(3-oxo-3-(pyrrolidin-1-yl)propyl)-1H-indol-3-yl)thio)benzoic acid], with no more than 500 nM.
